System: 786-0 complex spheroids with HUVEC/MSC, growth % test/control
Test: Anticancer human tumor 786-0 cell line growth inhibition [AhR];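 further: compound exposure lasted seven days before the read-out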
Settings: for IC50: curve of first compound; for viability, T/C: stronger effect = lower value
Description: Multicellular complex tumor spheroid response to aryl hydrocarbon receptor antagonists in combination with a variety of drugs and investigational agents in selected tumor cell lines
The current study was undertaken to assess response to aryl hydrocarbon receptor antagonists in combination with standard-of-care drugs and investigational agents in solid tumor complex spheroid models. Complex spheroids include a stromal component modeled by human endothelial cells (HUVEC) and fibroblasts modeled by human mesenchymal stem cells (MSCs). The concentration ranges selected for each drug and investigational agent were based upon clinically achievable concentrations if the clinical Cmax of the agent was known.
Compounds. The drugs and investigational agents: BAY 2416964 (NSC825713), GNF351 (NSC835774), CH-223191 (NSC835775), CPI-455 (NSC825282), aza-TdCyd (NSC777586), decitabine (NSC127716), belinostat (NSC758774), entinostat (NSC756642), pevonedistat (NSC761192), tazemetostat (NSC777109), talazoparib (NSC765396), olaparib (NSC753686), selinexor (NSC780203), nedisertib (M3814, NSC802822), bortezomib (NSC756655), venetoclax (NSC766270), doxorubicin (NSC123127), elimusertib (BAY189344, NSC800525), ceralasertib (AZD6738, NSC777638), TAK-243 (NSC785004), alisertib (NSC759677), etoposide (NSC141540), topotecan (NSC609699), eribulin (NSC707389), gemcitabine (NSC613327), carboplatin (NSC241240), cisplatin (NSC119875), and SN-38 (NSC673596) were obtained from the National Cancer Institute (NCI) Developmental Therapeutics Program Chemical Repository (32). The FDA-approved anticancer drug set is available from the Developmental Therapeutics Program at https://dtp.cancer.gov/organization/dscb/obtaining/available plates.htm. […] The stock solutions were prepared in dimethyl sulfoxide (DMSO, Sigma-Aldrich, St. Louis, MO, cat. D2650), except for the platinum compounds which were prepared in saline (Quality Biological, Gaithersburg, MD, cat. 114-055-101), at 800-fold the tested concentration and stored at -70 degrees C prior to their use. All drugs and investigational agents were tested over a range starting from a high concentration at or near the clinical Cmax and decreasing in half-log increments. If the clinical Cmax for an agent had not been determined, the highest concentration tested was 10 microM (Table 1).
Cell Culture. All cells were maintained in an incubator at 37 degrees C and 5% CO2 with 95% humidity. The PDC lines were cultured according to standard operating procedures established by the NCI PDMR (https://pdmr.cancer.gov). Briefly, all PDCs were thawed and cultured in Matrigel-coated flasks prepared with a working solution of 1X Ham's F-12 nutrient mix, without supplementation (Invitrogen, Waltham, MA, cat. 11765054), 100 U/mL penicillin-streptomycin (Invitrogen, cat. 15140122), and 2.5% Matrigel (Corning Inc., Corning, NY, cat. 354248) for the first three passages. All PDCs were cultured in complete DMEM/F-12 media containing advanced DMEM/F-12 (Invitrogen, cat. 12634028), 4.9% defined fetal bovine serum, heat inactivated (HyClone Laboratories Inc., Logan, UT, cat. SH30070.03HI), 389 ng/mL hydrocortisone (Sigma-Aldrich, cat. H4001), 9.7 ng/mL human EGF recombinant protein (Invitrogen, cat. PHG0313), 23.4 microg/mL adenine (Sigma-Aldrich, cat. A2786), 97.3 U/mL penicillin-streptomycin (Invitrogen, cat. 15140122), 1.9 mM L-glutamine (Invitrogen, cat. 25030081), and 9.7 microM Y-27632 dihydrochloride (Tocris Bioscience, Bristol, United Kingdom, cat. 1254). The PDCs were cultured in complete DMEM/F12 media without 10 microM Y-27632 dihydrochloride for at least two passages prior to the screen. The established cell lines NCI-H1341 and […] were cultured in DMEM/F-12, HEPES (Invitrogen, cat. 11330032), 5% defined fetal bovine serum (HyClone Laboratories Inc., cat. SH30070.03), ITS premix universal culture supplement [insulin (5 microg/mL), transferrin (5 microg/mL), and selenious acid (5 ng/mL)] […]

[1] = second compound 0.1 µM, first compound 0.0316 µM
[2] = second compound 0.1 µM, first compound 0.1 µM
[3] = second compound 0.316 µM, first compound 0.0316 µM
[4] = second compound 0.316 µM, first compound 0.1 µM
[5] = second compound 1 µM, first compound 0.0316 µM
[6] = second compound 1 µM, first compound 0.1 µM
[7] = second compound 3.16 µM, first compound 0.0316 µM
[8] = second compound 3.16 µM, first compound 0.1 µM
[9] = second compound 10 µM, first compound 0.0316 µM
[10] = second compound 10 µM, first compound 0.1 µM

With `CC[C@@]1(O)C(=O)OCc2c1cc1n(c2=O)Cc2cc3c(CN(C)C)c(O)ccc3nc2-1` + CC(CO)NC(=O)c1cc(-c2ccc(Cl)cc2)nn(-c2cnn(C)c2)c1=O the IC50 (second compound 0.1 µM) was 59 nM, the IC50 (second compound 0.316 µM) was 57.6 nM and the IC50 (second compound 1 µM) was 60.8 nM. The IC50 (second compound 3.16 µM) was 53.6 nM, the IC50 (second compound 10 µM) was 51.8 nM and the viability, T/C (second compound 0.1 µM, first compound 0.000316 µM) was 112%. For the same molecule, the viability, T/C (second compound 0.1 µM, first compound 0.001 µM) was 119%, the viability, T/C (second compound 0.1 µM, first compound 0.00316 µM) was 111% and the viability, T/C (second compound 0.1 µM, first compound 0.01 µM) was 115%. The viability, T/C [1] was 90.9%, the viability, T/C [2] was 15.2% and the viability, T/C (second compound 0.316 µM, first compound 0.000316 µM) was 106%. It also gave a viability, T/C (second compound 0.316 µM, first compound 0.001 µM) of 114%, a viability, T/C (second compound 0.316 µM, first compound 0.00316 µM) of 112% and a viability, T/C (second compound 0.316 µM, first compound 0.01 µM) of 109%. The viability, T/C [3] was 89.9%, the viability, T/C [4] was 13.3% and the viability, T/C (second compound 1 µM, first compound 0.000316 µM) was 113%. The viability, T/C (second compound 1 µM, first compound 0.001 µM) was 107%, the viability, T/C (second compound 1 µM, first compound 0.00316 µM) was 108% and the viability, T/C (second compound 1 µM, first compound 0.01 µM) was 104%. It also gave a viability, T/C [5] of 95.4%, a viability, T/C [6] of 15.2% and a viability, T/C (second compound 3.16 µM, first compound 0.000316 µM) of 113%. It also gave a viability, T/C (second compound 3.16 µM, first compound 0.001 µM) of 116%, a viability, T/C (second compound 3.16 µM, first compound 0.00316 µM) of 109% and a viability, T/C (second compound 3.16 µM, first compound 0.01 µM) of 109%. The viability, T/C [7] was 80.9%, the viability, T/C [8] was 13.4% and the viability, T/C (second compound 10 µM, first compound 0.000316 µM) was 118%. For the same molecule, the viability, T/C (second compound 10 µM, first compound 0.001 µM) was 116%, the viability, T/C (second compound 10 µM, first compound 0.00316 µM) was 118% and the viability, T/C (second compound 10 µM, first compound 0.01 µM) was 113%. The viability, T/C [9] was 76.9% and the viability, T/C [10] was 14.1%.
For `CCc1c2c(nc3ccc(O)cc13)-c1cc3c(c(=O)n1C2)COC(=O)[C@]3(O)CC` + CC(CO)NC(=O)c1cc(-c2ccc(Cl)cc2)nn(-c2cnn(C)c2)c1=O, the IC50 (second compound 0.1 µM) was 5.22 nM, the IC50 (second compound 0.316 µM) was 4.94 nM and the IC50 (second compound 1 µM) was 4.22 nM. For the same molecule, the IC50 (second compound 3.16 µM) was 3.06 nM, the IC50 (second compound 10 µM) was 2.22 nM and the viability, T/C (second compound 0.1 µM, first compound 0.000949 µM) was 98.5%. The viability, T/C (second compound 0.1 µM, first compound 0.003 µM) was 82.1%, the viability, T/C (second compound 0.1 µM, first compound 0.00949 µM) was 15.3% and the viability, T/C (second compound 0.1 µM, first compound 0.03 µM) was 5.93%. For the same molecule, the viability, T/C (second compound 0.1 µM, first compound 0.0949 µM) was 2.72%, the viability, T/C (second compound 0.1 µM, first compound 0.3 µM) was 2.09% and the viability, T/C (second compound 0.316 µM, first compound 0.000949 µM) was 88%. The viability, T/C (second compound 0.316 µM, first compound 0.003 µM) was 75.5%, the viability, T/C (second compound 0.316 µM, first compound 0.00949 µM) was 16.6% and the viability, T/C (second compound 0.316 µM, first compound 0.03 µM) was 5.34%. The viability, T/C (second compound 0.316 µM, first compound 0.0949 µM) was 3.26%, the viability, T/C (second compound 0.316 µM, first compound 0.3 µM) was 2.5% and the viability, T/C (second compound 1 µM, first compound 0.000949 µM) was 96.8%. The viability, T/C (second compound 1 µM, first compound 0.003 µM) was 65%, the viability, T/C (second compound 1 µM, first compound 0.00949 µM) was 14.1% and the viability, T/C (second compound 1 µM, first compound 0.03 µM) was 6.51%. For the same molecule, the viability, T/C (second compound 1 µM, first compound 0.0949 µM) was 3.19%, the viability, T/C (second compound 1 µM, first compound 0.3 µM) was 2.39% and the viability, T/C (second compound 3.16 µM, first compound 0.000949 µM) was 81.5%. The viability, T/C (second compound 3.16 µM, first compound 0.003 µM) was 50.7%, the viability, T/C (second compound 3.16 µM, first compound 0.00949 µM) was 14.6% and the viability, T/C (second compound 3.16 µM, first compound 0.03 µM) was 5.63%. It also gave a viability, T/C (second compound 3.16 µM, first compound 0.0949 µM) of 2.91%, a viability, T/C (second compound 3.16 µM, first compound 0.3 µM) of 2.49% and a viability, T/C (second compound 10 µM, first compound 0.000949 µM) of 81.4%. For the same molecule, the viability, T/C (second compound 10 µM, first compound 0.003 µM) was 39%, the viability, T/C (second compound 10 µM, first compound 0.00949 µM) was 14% and the viability, T/C (second compound 10 µM, first compound 0.03 µM) was 6.45%. It also gave a viability, T/C (second compound 10 µM, first compound 0.0949 µM) of 3.27% and a viability, T/C (second compound 10 µM, first compound 0.3 µM) of 2.66%.
For `Nc1ccn(C2OC(CO)C(O)C2(F)F)c(=O)n1` (stereo not given) + CC(CO)NC(=O)c1cc(-c2ccc(Cl)cc2)nn(-c2cnn(C)c2)c1=O, the IC50 (second compound 0.1 µM) was < 31.6 nM, the IC50 (second compound 0.316 µM) was < 31.6 nM and the IC50 (second compound 1 µM) was < 31.6 nM. For the same molecule, the IC50 (second compound 3.16 µM) was < 31.6 nM, the IC50 (second compound 10 µM) was < 31.6 nM and the viability, T/C [1] was 4.79%. For the same molecule, the viability, T/C [2] was 4.46%, the viability, T/C (second compound 0.1 µM, first compound 0.316 µM) was 2.56% and the viability, T/C (second compound 0.1 µM, first compound 1 µM) was 4.39%. It also gave a viability, T/C (second compound 0.1 µM, first compound 3.16 µM) of 3.18%, a viability, T/C (second compound 0.1 µM, first compound 10 µM) of 4.27% and a viability, T/C [3] of 5.24%. For the same molecule, the viability, T/C [4] was 4.16%, the viability, T/C (second compound 0.316 µM, first compound 0.316 µM) was 4.42% and the viability, T/C (second compound 0.316 µM, first compound 1 µM) was 3.7%. The viability, T/C (second compound 0.316 µM, first compound 3.16 µM) was 4.85%, the viability, T/C (second compound 0.316 µM, first compound 10 µM) was 6.51% and the viability, T/C [5] was 5.01%. The viability, T/C [6] was 3.82%, the viability, T/C (second compound 1 µM, first compound 0.316 µM) was 4.34% and the viability, T/C (second compound 1 µM, first compound 1 µM) was 4.23%. The viability, T/C (second compound 1 µM, first compound 3.16 µM) was 4.33%, the viability, T/C (second compound 1 µM, first compound 10 µM) was 4.11% and the viability, T/C [7] was 5.21%. The viability, T/C [8] was 4.49%, the viability, T/C (second compound 3.16 µM, first compound 0.316 µM) was 4.44% and the viability, T/C (second compound 3.16 µM, first compound 1 µM) was 4.62%. For the same molecule, the viability, T/C (second compound 3.16 µM, first compound 3.16 µM) was 4.8%, the viability, T/C (second compound 3.16 µM, first compound 10 µM) was 5.89% and the viability, T/C [9] was 4.43%. The viability, T/C [10] was 3.72%, the viability, T/C (second compound 10 µM, first compound 0.316 µM) was 4.66% and the viability, T/C (second compound 10 µM, first compound 1 µM) was 4.02%. The viability, T/C (second compound 10 µM, first compound 3.16 µM) was 5.31% and the viability, T/C (second compound 10 µM, first compound 10 µM) was 6.31%.

Source: PubChem BioAssay AID1919003 (Molecular Pharmacology Branch, DTP, NCI, 2023)
